{
  "source": "patent US5457092A",
  "about": "“Methods of promoting bone growth in mammals comprising administration of modified parathyroid hormone” (Gesellschaft fur Biotechnologische Forschung mbH (GBF), priority 1987, dated 1995)",
  "key": {"[1]": {"test_system": "ROS 17/2.8 osteoblast-like cells", "assay": "Cyclic AMP production in ROS 17/2.8 osteoblast-like cells", "assay_type": "cell-based, rat", "conditions": "for Cyclic AMP, effect of fragment (experimental value/control value): control 29 ± 5.2 pmol/mg of protein", "method": "When cultures of the widely used model for osteoblasts, the osteoblast-likeclone of rat osteosarcoma, ROS 17/2.8 (Endocrinology (Baltimore), 107 (1980) 1494-1503=12; Majeska et al.), were incubated with full-length PTH and PTH fragments (Table 4), cyclic AMP production was stimulated only by bPTH(1-84) and hPTH(1-34), whereas hPTH(25-39), hPTH(27-48), hPTH(28-48) and hPTH(34-47) were ineffective."}, "[2]": {"test_system": "osteoblast enriched rat embryo calvaria cell cultures", "assay": "CK specific activity in rat embryo calvaria cell cultures", "assay_type": "cell-based", "conditions": "for increase of CK activity (in words): treated for 24 h; for CK specific activity, effect of fragment (experimental value/control value): 100 nM, 24 h, control 457 ± 46 nmol/min per mg of protein", "method_in_brief": "(§1)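 Osteoblast-enriched rat embryo calvaria cultures stimulated with PTH fragments from the central portion of the molecule. Cyclic AMP measured 15 min after stimulation; CK specific activity measured 24 h after stimulation. Values are means ±S.E.M., N≥5, compared with controls by Student's T test.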"}, "renal adenylate cyclase": {"test_system": "renal adenylate cyclase", "conditions": "Adv. Protein Chemistry 35 (1982) 323 ff. (Potts et al.), cited from earlier work"}, "[3]": {"test_system": "osteoblast enriched rat embryo calvaria cell cultures", "assay": "DNA synthesis ([3H]thymidine incorporation) in rat embryo calvaria cell cultures", "assay_type": "cell-based", "conditions": "for [3H)Thymidine incorporation, effect of fragment (experimental value/control value): 100 nM, 24 h, control 624 ± 73 c.p.m./μg of DNA", "method_in_brief": "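Cultures stimulated with bPTH (1-84); [3H]thymidine incorporation into DNA measured 24 h after stimulation. Values are means ±S.E.M., N≥5, compared with controls by Student's t test.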"}, "ROS 17/2.8 cells": {"test_system": "ROS 17/2.8 cells", "assay": "Inhibition of bPTH(1-34)-stimulated cAMP synthesis of intact ROS 17/2.8 cells", "assay_type": "cell-based, rat", "conditions": "30 nM hPTH(28-48) added to 100 nM bPTH(1-34); 1 mM IBMX; 10 min", "method": "FIG. 9 is a graphical representation showing the cAMP yields [nitrogenic effect of bPTH (1-34].\n100 nM bPTH(1-34) were used to stimulate cAMP synthesis of intact ROS 17/2.8 cells (cell density 1.3×10^6 cells/cm^2) in the presence of 1 mM IBMX for 10 min. cAMP yields were determined by radio assay. Based on the conditions mentioned, the cAMP basal value of non-stimulated cells corresponds to 8 pmol/well. This effect of bPTH(1-34) can be inhibited by an additional doses of 30 nM hPTH(28-48) up to about 50%; cf. FIG. 9."}, "[4]": {"test_system": "chondrocytes isolated from the sterna of 16-day-old chicken embryos", "assay": "Incorporation of 3H-methylthymidine into total DNA of chicken embryo chondrocytes (Examples 1-3)", "assay_type": "cell-based", "description": "FIG. 1 is a graph showing the stimulation of chondrocyte DNA synthesis by the addition of PTH and PTH fragments; expressed as the ratio of the rate of incorporation of ^3 H-methylthymidine into the total DNA of the induced cultures to that of the untreated control cultures.\nFIGS. 2-6 are graphs showing the dosage/effect curves for the mitogenic activity of PTH and PTH fragments;\nFIG. 1: In order to determine the incorporation of ^3 H-methylthymidine into total DNA the cells were cultivated on microtiter plates in M199 medium at a concentration of foetal calf serum (FCS) of less than 0.5% (by volume). The cell density of the chondrocytes that reacted to the addition of PTH with an increase in the incorporation of ^3 H-methylthymidine into the total DNA was from 1250 to 6000 cells/microtitre well (diameter 6 mm) at the time of plating-out. […] The incorporation of ^3 H-methylthymidine into the total DNA was determined as follows. After removing the radioactive medium, the adherent growing chondrocytes were washed with PBS and lysed in the microtitre wells. The total DNA was then precipitated under acid conditions at low temperature and transferred onto filter papers using a semi-automatic harvesting device. The rate of incorporation into total DNA could then be determined; cf. FIG. 1. […]"}, "[5]": {"test_system": "chondrocytes isolated from the sterna of 16-day-old chicken embryos", "assay": "Determination of cell number of chondrocyte cultures", "assay_type": "cell-based", "conditions": "induced for 24 hours; non-induced 41,000 cells/ml", "method": "FIG. 7 is a comparative graph showing cell number after incubation of the non-induced cultures compared to cultures induced with hPTH (28-48) for 24 hours.\nFIG. 1: In order to determine the incorporation of ^3 H-methylthymidine into total DNA the cells were cultivated on microtiter plates in M199 medium at a concentration of foetal calf serum (FCS) of less than 0.5% (by volume). The cell density of the chondrocytes that reacted to the addition of PTH with an increase in the incorporation of ^3 H-methylthymidine into the total DNA was from 1250 to 6000 cells/microtitre well (diameter 6 mm) at the time of plating-out. […] The incorporation of ^3 H-methylthymidine into the total DNA was determined as follows. After removing the radioactive medium, the adherent growing chondrocytes were washed with PBS and lysed in the microtitre wells. The total DNA was then precipitated under acid conditions at low temperature and transferred onto filter papers using a semi-automatic harvesting device. The rate of incorporation into total DNA could then be determined; cf. FIG. 1. […] The concentration for semi-maximum stimulation was from 9 to 15 nM for bPTH(1-84) and from 50 to 75 nM for the PTH fragments bPTH(1-34) and bPTH(3-34). In contrast, the PTH fragment hPTH(28-48), which, according to Adv. Protein Chemistry, 35 (1982) 323 ff."}, "[6]": {"test_system": "osteoblast enriched rat embryo calvaria cell cultures", "assay": "Cyclic AMP production in rat embryo calvaria cell cultures", "assay_type": "cell-based", "conditions": "100 nM; 15 min; control 29 ± 2.9 pmol/mg of protein", "method_in_brief": "as §1"}},
  "note": "Where two headings read alike, the source gives them in different places.",
  "data": [
    {"substance": "hPTH(34-47): PTH fragment 34-47, human source; comparative example (FVALGAPLAPRDAG; Parathyroid hormone; UniProt P01270 65-78, looked up, fragment) [reference compound]", "values": [
      {"measurement": "stimulation of cyclic AMP production (in words)", "setting": "[1]", "result": "ineffective"},
      {"measurement": "Cyclic AMP, effect of fragment (experimental value/control value)", "setting": "[1]; 500 nM", "result": "0.88 ± 0.31"},
      {"measurement": "increase of CK activity (in words)", "setting": "[2]", "result": "inactive"}
    ]},
    {"substance": "hPTH(28-48): mid-regional PTH fragment 28-48, human source (LQDVHNFVALGAPLAPRDAGS; Parathyroid hormone; UniProt P01270 59-79, looked up, fragment)", "values": [
      {"measurement": "stimulation of cyclic AMP production (in words)", "setting": "[1]", "result": "ineffective"},
      {"measurement": "Cyclic AMP, effect of fragment (experimental value/control value)", "setting": "[1]; 400 nM", "result": "1.18 ± 0.28"},
      {"measurement": "stimulation of renal adenylate cyclase", "setting": "renal adenylate cyclase", "result": "does not stimulate renal adenylate cyclase"},
      {"measurement": "stimulation of renal adenylate cyclase", "setting": "renal adenylate cyclase; listed as hPTh(28-48)", "result": "will not stimulate renal adenylate cyclase"},
      {"measurement": "stimulation of DNA synthesis (in words)", "setting": "[3]", "result": "maximal"},
      {"measurement": "[3H)Thymidine incorporation, effect of fragment (experimental value/control value)", "setting": "[3]", "result": "2.82 ± 0.18"},
      {"measurement": "inhibition of the cAMP synthesis stimulated by bPTH(1-34)", "setting": "ROS 17/2.8 cells", "result": "about 50%"},
      {"measurement": "CK specific activity, effect of fragment (experimental value/control value)", "setting": "[2]", "result": "2.15 ± 0.15"},
      {"measurement": "increase of CK activity (in words)", "setting": "[2]", "result": "maximally active"},
      {"measurement": "EC50", "setting": "[4]; 3H-methylthymidine incorporation into total DNA, read-out: concentration for semi-maximum stimulation", "result": 349, "unit": "nM"},
      {"measurement": "increase in the incorporation of 3H-methylthymidine into total DNA by a factor", "setting": "[4]; ratio induced / untreated control cultures, depending on concentration", "result": 6},
      {"measurement": "total cell number", "setting": "[5]", "result": "63,000 cells/ml"},
      {"measurement": "Cyclic AMP concentration, effect of fragment (experimental value/control value)", "setting": "[6]", "result": "1.22 ± 0.09"}
    ]},
    {"substance": "hPTH(25-39): PTH fragment 25-39, human source (RKKLQDVHNFVALGA; Parathyroid hormone; UniProt P01270 56-70, looked up, fragment)", "values": [
      {"measurement": "stimulation of cyclic AMP production (in words)", "setting": "[1]", "result": "ineffective"},
      {"measurement": "Cyclic AMP, effect of fragment (experimental value/control value)", "setting": "[1]; 200 nM", "result": "1.05 ± 0.15"},
      {"measurement": "stimulation of DNA synthesis (in words)", "setting": "[3]", "result": "maximal"},
      {"measurement": "[3H)Thymidine incorporation, effect of fragment (experimental value/control value)", "setting": "[3]", "result": "2.96 ± 0.18"},
      {"measurement": "CK specific activity, effect of fragment (experimental value/control value)", "setting": "[2]", "result": "2.15 ± 0.24"},
      {"measurement": "Cyclic AMP concentration, effect of fragment (experimental value/control value)", "setting": "[6]", "result": "0.87 ± 0.30"}
    ]}
  ]
}
